US20070059720A9 (priority 2004, published 2007)

Legend:
cyclin D1 (CCND1) = assay: Immunoblot of CCND1 in MCF-7 transfectants; assay type: cell-based, human; conditions: MKP3 overexpressing cells; 2 hours
Experimental: Cells grown in 100 mm dishes were starved in phenol red-free (PRF), serum-free MEM (Specialty Media, Phillipsburg, N.J.) for 48 hours, and were then treated for 2 hours with vehicle (ethanol), estrogen (100 nM, 20), or OHT (100 nM). After treatment, cells were rinsed twice with ice-cold phosphate-buffered saline (PBS) and were then lysed immediately with 200 μl of cell lysis buffer (20 mM Tris HCl, pH 7.4, 150 mM NaCl, 1 mM B-glycerophosphate, 1 mM sodium orthovanadate, and 10% glycerol plus 1:100 proteinase inhibitor cocktail III) (Calbiochem, LaJolla, Calif.) per 100 mm tissue culture. The cell lysates were cleared by centrifugation at 16,100×g for 10 minutes at 4° C. Protein concentration was determined with the BCA Protein Assay kit (Pierce, Rockfold, Ill.) according to the manufacturer's directions. Equal amount of cell extracts were resolved under denaturing conditions by electrophoresis in 8-10% polyacrylamide gels containing sodium dodecyl sulfate (SDS-PAGE), and transferred to nitrocellulose membranes by electroblotting (Schleicher & Schuell, Keene, NH). […]
As expected with two hours of estrogen treatment, no induction of the two PR isoforms were detected in either the control vector (Con 1 and 2), or in the MKP3-transfected cells (FIG. 11A). […]

PR-B = assay: PR ubiquitin assay; assay type: cell-based, human; conditions: 2 hrs in the presence of a proteasomal inhibitor
Experimental: Cells were staved in PRF MEM for 24 hours, and then 2×10^6 cells were seeded into 100 mm tissue culture plates, and incubated for another 24 hours. Cells were transiently transfected with Fugene 6 reagent (Roche, Indianapolis, Ind.) following the manufacturer's protocol. Each plate was transfected with 1 μg pcDNA 3.1-PR-B (subcloned by BamHI digestion from pSG5-human PR-B clone (Richer et al., 1998) obtained from Dr. Kathryn Horwitz, University of Colorado Health Sciences Center, 1 μg MKP3-V5, and 3 μg pcDNA-HAUbiquitin (kindly provided by Dr. Xinhua Feng, Baylor College of Medicine). Twenty-four hours later, cells were switched to serum free, PRF MEM, incubated for another 24 hours. In some experiments were pretreated with the 50 μM MG-132 (Calbiochem, LaJolla, Calif.) for 2 hours, and then treated with vehicle (ethanol), estradiol (E2, 100 nM), or 4-OH-Tam (100 nM) for an additional 2 hours. Cells were then harvested in 1 ml cell lysis buffer supplemented with 50 μM MG-132. Cell lysates from each treatment were precleared with the addition of 50 μl 50% protein A slurry (Amersham), and immunoprecipitated with the addition of anti-PR antibodies C-19 and H190 (2 μg each), and 20 μl 50% protein A slurry. […]

ERα [1] = assay: Transient transactivation assay with ERE-luciferase reporter; assay type: cell-based; conditions: U20S cells with exogenous ER or MCF-7 cells with endogenous ER; EBP50 expression
Excerpt: Transient transactivation assays with an ERE-luciferase reporter were utilized in U20S cells expressing exogenous ER (Panel A), or MCF-7 cells expressing endogenous ER (Panel B). ER activity was enhanced with EBP50 expression in the presence of estrogen.

ER-positive tumors = conditions: cited from earlier work
EBP50 [2] = assay: Immunoblot of EBP50 in T47D vector and MTA2 clones; assay type: cell-based, human
ERα [3] = assay: Immunoblot of ERα in T47D vector and MTA2 clones; assay type: cell-based, human
EBP50 [4] = assay: Immunoblot of EBP50 in MCF-7 cells; assay type: cell-based, human; conditions: 24 hours
Experimental: (§1) In Panel B, immunoprecipitation of E or T treated MCF-7 cells was performed followed by immunoblot analysis.

ezrin = assay: Immunoblot of ezrin in MCF-7 cells; assay type: cell-based, human; conditions: 24 hours
Experimental: as §1

[5] = adjuvant therapy, patients with ER-positive tumors

SMILES	CCND1 levels (cyclin D1 (CCND1))	level of polyubiquitin-conjugated PR-B (PR-B)	effect on ER activity (ERE-luciferase) (ERα [1])	10-year recurrence risk (ER-positive tumors; [5])	reduction of the risk of death from metastatic disease (ER-positive tumors; [5]) [%]	share of patients with ER-positive disease who respond (ER-positive tumors; human, in vivo) [%]	EBP50 levels (EBP50 [2])	ERα protein levels (ERα [3])	EBP50 levels (EBP50 [4])	ezrin levels (ezrin)
CC/C(=C(\c1ccccc1)c1ccc(OCCN(C)C)cc1)c1ccccc1 [Tam, tamoxifen]	High levels	increased	antagonist and reversed estrogen's effects	halves	26	60	–	–	–	–
C[C@]12CC[C@@H]3c4ccc(O)cc4CC[C@H]3[C@@H]1CC[C@@H]2O [E2, 17β-Estradiol]	–	–	–	–	–	–	increased	decreased	similarly induced	similarly induced
